≈ marks a conversion by molar mass, not a printed value. Where two headings read alike, the source gives them in different places.
What was measured:
Test in all cases: Antibacterial effectiveness in a standard microtitre test (MIC)
Format in all cases: cell-based
[1] = system: Serratia marcescens US20
From the text: (§1) Antibacterial effectiveness of the compounds of the Examples in a standard microtitre test.

[2] = system: Staphylococcus aureus Russell
From the text: as §1

[3] = system: Bacillus subtilis A
From the text: as §1

[4] = system: Streptococcus faecalis I; conditions: Enterococcus faecalis
From the text: as §1

[5] = system: Proteus mirabilis C977
From the text: as §1

[6] = system: Salmonella typhimurium CR10; conditions: Salmonella enterica
From the text: as §1

[7] = system: Escherichia coli ESS
From the text: as §1

[8] = system: Streptococcus pneumoniae CN33
From the text: as §1

[9] = system: Proteus vulgaris W091
From the text: as §1

[10] = system: Pseudomonas aeruginosa A
From the text: as §1

[11] = system: Escherichia coli JT 39; conditions: JT39
From the text: as §1

[12] = system: Streptococcus pyogenes CN10
From the text: as §1

[13] = system: Citrobacter freundii E8
From the text: as §1

[14] = system: Proteus morganii I580; conditions: Morganella morganii
From the text: as §1

[15] = system: Enterobacter cloacae N1
From the text: as §1

[16] = system: Escherichia coli 0111
From the text: as §1

[17] = system: Staphylococcus aureus Oxford
From the text: as §1

[18] = system: Shigella sonnei MB 11967; conditions: MB11967
From the text: as §1

[19] = system: Klebsiella aerogenes A
From the text: as §1

[20] = system: Proteus rettgeri WM16; conditions: Providencia rettgeri
From the text: as §1

[21] = system: Staphylococcus aureus 1517
From the text: as §1

[22] = system: Escherichia coli JT 4 R+
From the text: as §1

[23] = system: Klebsiella aerogenes Ba 95 R+
From the text: as §1

[24] = Bacillus subtilis A, read-out: MIC
[25] = Streptococcus faecalis I, read-out: MIC
[26] = Salmonella typhimurium CR10, read-out: MIC
[27] = Pseudomonas aeruginosa A, read-out: MIC
[28] = Proteus morganii I580, read-out: MIC
[29] = Staphylococcus aureus Oxford, read-out: MIC
[30] = Proteus rettgeri WM16, read-out: MIC

For CC(=O)N/C=C/SC1=C(C(=O)[O-])N2C(=O)[C@H]([C@@H](C)O)[C@H]2C1.[Na+] [Example 5, Sodium (5R,6S)-3-(E-2-acetamidoethenylthio)-6-[(R)-1-hydroxyethyl]-7-oxo-1-azabicyclo[3.2.0]hept-2-ene-2-carboxylate], the MIC [1] was 2 µg/mL, the MIC ([2]; Staphylococcus aureus) was ≤ 0.5 µg/mL and the MIC ([3]; Bacillus subtilis) was 0.2 µg/mL. The MIC [4] was 8 µg/mL, the MIC [5] was 2 µg/mL and the MIC ([6]; TYPHIMURIUM) was 0.5 µg/mL. For the same compound, the MIC ([7]; Escherichia coli) was > 0.2 µg/mL, the MIC [8] was 0.2 µg/mL and the MIC [9] was 2 µg/mL. It also gave an MIC ([10]; Pseudomonas aeruginosa) of 125 µg/mL, an MIC ([11]; Escherichia coli) of 0.2 µg/mL and an MIC [12] of 0.5 µg/mL. The MIC [13] was 0.5 µg/mL, the MIC ([14]; I580) was 2 µg/mL and the MIC [15] was 1 µg/mL. The MIC [16] was ≤ 0.5 µg/mL, the MIC ([17]; Staphylococcus aureus) was 0.2 µg/mL and the MIC [18] was ≤ 1 µg/mL. For the same compound, the MIC ([19]; Klebsiella aerogenes) was 0.5 µg/mL and the MIC ([20]; WM16) was 2 µg/mL.
Work on CC(=O)N/C=C/SC1=C(C(=O)[O-])N2C(=O)[C@H]([C@@H](C)OC=O)[C@H]2C1.[Na+] [Example 6, Sodium (5R,6S)-3-(E-2-acetamidoethenylthio)-6-[(R)-1-formyloxyethyl]-7-oxo-1-azabicyclo[3.2.0]hept-2-ene-2-carboxylate] yielded an MIC [21] of 12.5 µg/mL, an MIC [1] of 3.1 µg/mL and an MIC ([2]; Staphylococcus aureus) of 0.4 µg/mL. It also gave an MIC ([3]; Bacillus subtilis) of 0.8 µg/mL, an MIC [4] of 12.5 µg/mL and an MIC [5] of 6.2 µg/mL. The MIC ([6]; TYPHIMURIUM) was 3.1 µg/mL, the MIC ([7]; Escherichia coli) was 0.4 µg/mL and the MIC [8] was 0.1 µg/mL. The MIC [9] was 3.1 µg/mL, the MIC ([10]; Pseudomonas aeruginosa) was 100 µg/mL and the MIC ([11]; Escherichia coli) was 0.8 µg/mL. It also gave an MIC [12] of 0.2 µg/mL, an MIC [13] of 1.6 µg/mL and an MIC ([14]; I580) of 6.2 µg/mL. It also gave an MIC [15] of 6.2 µg/mL, an MIC [16] of 1.6 µg/mL and an MIC ([17]; Staphylococcus aureus) of 0.8 µg/mL. For the same compound, the MIC [18] was 1.6 µg/mL, the MIC ([19]; Klebsiella aerogenes) was 1.6 µg/mL and the MIC ([20]; WM16) was 3.1 µg/mL.
In the case of CC(=O)NCCSC1=C(C(=O)O)N2C(=O)[C@H]([C@@H](C)N)[C@H]2C1 [Example 8, (5R,6R)-3-(2-Acetamidoethylthio)-6-[(R)-1-aminoethyl]-7-oxo-1-azabicyclo[3.2.0]hept-2-ene-2-carboxylic acid], the MIC ([21]; read-out: MIC) is reported as 31 µg/mL (≈ 98.9 µM), the MIC ([1]; read-out: MIC) is reported as 16 µg/mL (≈ 51.1 µM) and the MIC ([2]; Staphylococcus aureus Russell, read-out: MIC) is reported as 2 µg/mL (≈ 6.38 µM). The MIC [3, 24] was 4 µg/mL (≈ 12.8 µM), the MIC [4, 25] was 16 µg/mL (≈ 51.1 µM) and the MIC ([5]; read-out: MIC) was 31 µg/mL (≈ 98.9 µM). The MIC [6, 26] was 8 µg/mL (≈ 25.5 µM), the MIC ([7]; Escherichia coli ESS, read-out: MIC) was 4 µg/mL (≈ 12.8 µM) and the MIC ([8]; read-out: MIC) was 2 µg/mL (≈ 6.38 µM). It also gave an MIC ([9]; read-out: MIC) of 16 µg/mL (≈ 51.1 µM), an MIC [10, 27] of 62 µg/mL (≈ 198 µM) and an MIC ([11]; Escherichia coli JT 39, read-out: MIC) of 8 µg/mL (≈ 25.5 µM). It also gave an MIC ([12]; read-out: MIC) of 2 µg/mL (≈ 6.38 µM), an MIC ([13]; read-out: MIC) of 16 µg/mL (≈ 51.1 µM) and an MIC [14, 28] of 16 µg/mL (≈ 51.1 µM). The MIC ([15]; read-out: MIC) was 16 µg/mL (≈ 51.1 µM), the MIC [16] was 16 µg/mL (≈ 51.1 µM) and the MIC [17, 29] was 4 µg/mL (≈ 12.8 µM). The MIC [18] was 8 µg/mL (≈ 25.5 µM), the MIC ([19]; Klebsiella aerogenes A, read-out: MIC) was 8 µg/mL (≈ 25.5 µM) and the MIC [20, 30] was 16 µg/mL (≈ 51.1 µM).
With CC(=O)N/C=C/SC1=C(C(=O)O)N2C(=O)[C@H]([C@@H](C)N)[C@H]2C1 [Example 2, (5R,6R)-3-[E-2-acetamidoethenylthio]-6-[(R)-1-aminoethyl]-7-oxo-1-azabicyclo[3.2.0]hept-2-ene-2-carboxylic acid] the MIC ([21]; read-out: MIC) was 8 µg/mL (≈ 25.7 µM), the MIC ([1]; read-out: MIC) was 2 µg/mL (≈ 6.42 µM) and the MIC [3, 24] was 0.2 µg/mL (≈ 0.642 µM). The MIC [22] was 2 µg/mL (≈ 6.42 µM), the MIC [4, 25] was 4 µg/mL (≈ 12.8 µM) and the MIC ([5]; read-out: MIC) was 4 µg/mL (≈ 12.8 µM). It also gave an MIC [6, 26] of 1 µg/mL (≈ 3.21 µM), an MIC ([7]; Escherichia coli) of 0.2 µg/mL (≈ 0.642 µM) and an MIC ([9]; read-out: MIC) of 4 µg/mL (≈ 12.8 µM). It also gave an MIC [10, 27] of 62 µg/mL (≈ 199 µM), an MIC ([11]; Escherichia coli) of 0.5 µg/mL (≈ 1.61 µM) and an MIC ([13]; read-out: MIC) of 2 µg/mL (≈ 6.42 µM). For the same compound, the MIC [14, 28] was 8 µg/mL (≈ 25.7 µM), the MIC ([15]; read-out: MIC) was 2 µg/mL (≈ 6.42 µM) and the MIC [16] was 0.5 µg/mL (≈ 1.61 µM). For the same compound, the MIC [17, 29] was 0.5 µg/mL (≈ 1.61 µM), the MIC [23] was 2 µg/mL (≈ 6.42 µM) and the MIC [18] was 1 µg/mL (≈ 3.21 µM). The MIC ([19]; Klebsiella aerogenes) was 0.5 µg/mL (≈ 1.61 µM) and the MIC [20, 30] was 4 µg/mL (≈ 12.8 µM).
